Values belong to the molecule of their own block, whether it stands above or below them.
Assays:
human PDE4D3 (PDE4D) = human PDE4D3 (PDE4D) (Homo sapiens (Human), UniProt Q08499); test: Phosphodiesterase (PDE)4 inhibitory activity evaluation test ([3H]cAMP hydrolysis by PDE4D enzyme solution); format: biochemical; settings: recombinant human PDE4D3 expressed in COS-7 cells; [3H]cAMP substrate; 10 min at 30° C.; 2% DMSO
Summary of the method: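 Human PDE4D3 expressed in COS-7 cells; cell supernatant used as enzyme at a dilution giving 10–30% cAMP turnover. Compounds (10-fold serial dilutions, 2% final DMSO) incubated with enzyme and 2 μM [3H]cAMP stock in 20 mM Tris-HCl pH 7.4 with MgCl2 for 10 min at 30° C. Reaction stopped by boiling.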

[1] = tested on: TNF-α production in mouse peripheral blood mononuclear cells; test: Inhibitory activity measurement on TNF-α production (LPS-stimulated mouse peripheral blood mononuclear cells, ELISA); format: cell-based, mouse (male BALB/c); settings: PBMC, LPS 1 μg/ml, 5 hours at 37° C., ELISA of culture supernatant
Method: Inhibitory Activity Measurement on TNF-α Production
TNF-α production inhibitory activity was evaluated according to the following tests.
(1) Isolation of Mononuclear Cells from Mouse Peripheral Blood
Mononuclear cells were isolated from heparinized blood obtained from male BALB/c mice (Charles River Laboratories, Japan) by density gradient centrifugation using Lympholyte-M (Cedarlane Laboratories). Viable cell numbers in the peripheral blood mononuclear cells were counted using trypan blue dye, and prepared in cell culture medium (RPMI 1640 medium containing 10% FCS) to 1.25×10^6 cells/ml.
(2) Induction of TNF-α Production
Test compounds were dissolved in DMSO, and test compound solutions were diluted for use in cell culture media. 20 μl test compound solutions of different concentrations and 160 μl peripheral blood mononuclear cell suspensions were placed in a 96-well plate, and cultured for 30 minutes. 20 μl (final concentration 1 μg/ml) lipopolysaccharide (LPS) derived from E. coli (serotype 055:B5) was added thereto to induce THF-α production. The mixtures were then cultured at 37° C. for 5 hours, and the culture supernatant was removed from each well.
(3) Measurement of TNF-α Concentration
TNF-α concentrations in the culture supernatants were measured by ELISA (OptEIA™ Set Mouse TNF-α, BD Pharmingen). The IC50 values (concentration which produced 50% inhibition of TNF-α production) for the test compounds were determined with the Excel (Microsoft Excel 2000 SR-1) statistical package using regression analysis function.

Sequence of human PDE4D3 (PDE4D) (Q08499 other isoform, or with tags, fused parts or gaps): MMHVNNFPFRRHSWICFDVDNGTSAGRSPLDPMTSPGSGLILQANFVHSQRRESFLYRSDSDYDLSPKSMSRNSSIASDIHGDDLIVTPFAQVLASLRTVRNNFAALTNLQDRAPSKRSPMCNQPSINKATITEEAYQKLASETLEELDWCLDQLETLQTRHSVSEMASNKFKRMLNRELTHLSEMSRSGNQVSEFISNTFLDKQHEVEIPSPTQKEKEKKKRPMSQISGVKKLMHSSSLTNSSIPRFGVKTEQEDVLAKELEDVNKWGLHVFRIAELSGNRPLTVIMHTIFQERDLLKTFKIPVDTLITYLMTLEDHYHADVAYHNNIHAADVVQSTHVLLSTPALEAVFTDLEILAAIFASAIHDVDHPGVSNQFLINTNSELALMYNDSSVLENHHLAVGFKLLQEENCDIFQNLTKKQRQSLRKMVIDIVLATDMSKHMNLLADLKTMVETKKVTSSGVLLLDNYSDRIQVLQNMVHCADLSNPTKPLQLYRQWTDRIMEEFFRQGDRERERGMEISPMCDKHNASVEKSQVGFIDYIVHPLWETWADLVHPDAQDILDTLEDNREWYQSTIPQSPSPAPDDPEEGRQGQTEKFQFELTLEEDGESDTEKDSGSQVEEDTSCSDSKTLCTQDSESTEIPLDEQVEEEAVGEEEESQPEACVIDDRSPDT

SMILES: COc1ccc(-c2nc(CNC(=O)c3ncccc3C)co2)cc1OC1CCCC1 [Example 18, N-[2-(3-cyclopentyloxy-4-methoxyphenyl)oxazol-4-ylmethyl]-3-methylpicolinamide]
IC50 (human PDE4D3 (PDE4D)): < 50 nM
IC50 [1]: < 50 nM

IC50 [1]: < 50 nM
SMILES: COc1ccc(-c2nc(CCC(=O)c3ncccc3OC)co2)cc1OCC1CC1 [Example 126]

SMILES: COc1ccc(-c2nc(CNC(=O)c3c(F)cccc3OC)co2)cc1OCC1CC1 [Example 43, N-[2-(3-cyclopropylmethoxy-4-methoxyphenyl)oxazol-4-ylmethyl]-2-fluoro-6-methoxybenzamide]
IC50 (human PDE4D3 (PDE4D)): < 50 nM
IC50 [1]: < 50 nM

SMILES: COc1ccc(-c2nc(CCC(=O)c3ncccc3OC)co2)cc1OCC(F)(F)F [Example 129, 1-(3-methoxypyridin-2-yl)-3-{2-[4-methoxy-3-(2,2,2-trifluoroethoxy)phenyl]oxazol-4-yl}propan-1-one]
IC50 (human PDE4D3 (PDE4D)): < 50 nM

SMILES: CCOc1ccccc1C(=O)CCc1coc(-c2ccc(OC)c(OCC(F)(F)F)c2)n1 [Example 112, 1-(2-ethoxyphenyl)-3-{2-[4-methoxy-3-(2,2,2-trifluoroethoxy)phenyl]oxazol-4-yl}propan-1-one]
IC50 (human PDE4D3 (PDE4D)): < 50 nM

SMILES: COc1ccc(-c2nc(CCC(=O)c3ccccc3OCC(F)F)co2)cc1OCC1CC1 [Example 283, 3-[2-(3-cyclopropylmethoxy-4-methoxyphenyl)oxazol-4-yl]-1-[2-(2,2-difluoroethoxy)phenyl]propan-1-one]
IC50 (human PDE4D3 (PDE4D)): < 50 nM

SMILES: COc1ccc(-c2nc(CCC(=O)c3ncccc3C)co2)cc1OC1C=CCCC1 (centres unmarked) [Example 157, 3-{2-[3-(2-cyclohexenyloxy)-4-methoxyphenyl]oxazol-4-yl}-1-(3-methylpyridin-2-yl)propan-1-one]
IC50 (human PDE4D3 (PDE4D)): < 50 nM
IC50 [1]: < 50 nM

SMILES: CCOc1ccccc1C(=O)CCc1coc(-c2ccc(OC)c(OC(C)C)c2)n1 [Example 111, 1-(2-ethoxyphenyl)-3-[2-(3-isopropoxy-4-methoxyphenyl)oxazol-4-yl]propan-1-one]
IC50 (human PDE4D3 (PDE4D)): < 50 nM

SMILES: CCC(CC)Oc1cc(-c2nc(CCC(=O)c3ncccc3C)co2)ccc1OC [Example 312, 3-{2-[3-(1-ethylpropoxy)-4-methoxyphenyl]oxazol-4-yl}-1-(3-methylpyridin-2-yl)propan-1-one]
IC50 (human PDE4D3 (PDE4D)): < 50 nM

SMILES: C=CCOc1ccccc1C(=O)CCc1coc(-c2ccc(OC)c(OCC3CC3)c2)n1 [Example 177, 1-(2-allyloxyphenyl)-3-[2-(3-cyclopropylmethoxy-4-methoxyphenyl)oxazol-4-yl]propan-1-one]
IC50 (human PDE4D3 (PDE4D)): < 50 nM
IC50 [1]: < 50 nM

— patent USRE46792E1, “Oxazole compound and pharmaceutical composition” (Otsuka Pharmaceutical Co., Ltd., priority 2005, dated 2018)
